In US4857516A, “Coumaran derivatives and their pharmaceutical use” (Takeda Chemical Industries, Ltd., priority 1986, dated 1989):

Legend:
5-lipoxygenase = biological target: T1, 5-lipoxygenase (Rattus norvegicus, UniProt P12527); assay: Inhibition of 5-lipoxygenase (5-HETE production in RBL-1 cells); type: cell-based; settings: for inhibition at 1 µM: 10^-6 M; for inhibition at 0.1 µM: 10^-7 M; for inhibition at 0.01 µM: 10^-8 M
T1 construct: endogenous in cells; host or cells: RBL-1 (rat basophilic leukemia cells)
T1 sequence (P12527 1-673): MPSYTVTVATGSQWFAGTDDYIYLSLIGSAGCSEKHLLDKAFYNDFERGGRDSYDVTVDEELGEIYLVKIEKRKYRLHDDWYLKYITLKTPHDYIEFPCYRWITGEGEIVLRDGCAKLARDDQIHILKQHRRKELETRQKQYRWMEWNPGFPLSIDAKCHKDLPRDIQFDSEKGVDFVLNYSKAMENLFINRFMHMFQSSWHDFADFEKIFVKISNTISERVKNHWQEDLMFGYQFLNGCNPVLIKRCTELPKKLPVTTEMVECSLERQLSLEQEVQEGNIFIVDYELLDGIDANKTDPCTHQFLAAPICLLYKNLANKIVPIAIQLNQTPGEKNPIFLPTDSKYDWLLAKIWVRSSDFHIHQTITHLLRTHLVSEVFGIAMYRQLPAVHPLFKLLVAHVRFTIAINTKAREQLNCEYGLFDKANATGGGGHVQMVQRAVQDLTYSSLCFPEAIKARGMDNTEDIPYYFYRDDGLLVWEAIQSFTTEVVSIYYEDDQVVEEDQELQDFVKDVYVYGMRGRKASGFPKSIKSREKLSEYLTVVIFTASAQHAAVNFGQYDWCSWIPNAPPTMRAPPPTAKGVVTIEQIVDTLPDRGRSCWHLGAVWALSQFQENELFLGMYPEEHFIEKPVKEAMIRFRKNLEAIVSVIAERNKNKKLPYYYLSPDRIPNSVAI
Procedure: 10^7 RBL-1 cells (rat basophilic leukemia cells) were suspended in 0.5 ml of MCM (mast cell medium). […] Then 4 ml of ethanol was added, and the mixture was well shaken and kept at room temperature for 10 min.
The mixture was centrifuged for 10 min. (2000 rpm), and the supernatant was separated. The supernatant obtained was concentrated to dryness under reduced pressure. To the residue 0.5 ml of 60 v/v % aqueous methanol was added. One hundred μl of this solution was subjected to high performance liquid chromatography for quantitative analysis of 5-HETE (5-hydroxyeicosatetraenoic acid). The amount of 5-HETE was determined by measurement of the absorbance at 237 nm with a UV absorption monitor.
The inhibitory effect (IE) of production of 5-HETE is expressed by (1-b/a)×100, wherein a is the peak height or the area corrected with the peak due to the internal standard in the absence of the compound (I) or a pharmaceutically acceptable salt thereof, and b is the peak height or peak area corrected with the peak due to the internal standard in the presence of the compound (I) or a pharmaceutically acceptable salt thereof.

[1] = tested on: generation of HHT in rat platelets; assay: Inhibitory effect on the generation of 12-hydroxyheptadeca-5,8,10-trienoic acid (HHT) in rat platelets; type: cell-based; settings: rat platelet rich plasma
Procedure: Blood was collected in 3.2 v/v % sodium citrate (0.8 ml for 7.2 ml of blood) from the abdominal aorta of male Wister rats (Jcl, 12 to 15 weeks) anesthesized with pentobarbital. Platelet rich plasma (PRP) was obtained by centrifuging the blood at 800 rpm for 10 min at room temperature. Platelet poor plasma (PPP) was prepared by centrifuging the remaining blood at 3,000 rpm for 10 min. The platelet concentration of PRP was adjusted to 1,000,000/μl with PPP. […]
The reaction was stopped by adding 100 ml of ethanol and the mixture was allowed to stand for 10 min. at room temperature. The reaction mixture was centrifuged at 2,000 rpm for 10 min. and the supernatant obtained was evaporated. To the concentrate, 0.2 ml of 60 v/v % aqueous ethanol was added.
100 μl of this solution was subjected to high performance liquid chromatography for quantitative analysis of HHT. The amount of HHT was determined by measurement of absorbance at 237 nm with a UV absorption monitor.
The inhibitory effect (IE) on the generation of HHT is expressed by (1-b/a)×100, wherein a is the peak height or the peak area corrected with the peak due to the internal standard in the absence of the compound (I) or a pharmaceutically acceptable salt thereof, and b is the peak height or the peak area corrected with the peak due to the internal standard in the compound (I) or a pharmaceutically acceptable salt thereof.

[2] = tested on: lipid peroxide production in rat brain homogenates; assay: Inhibitory action on lipid peroxide production in rat brain homogenates; type: biochemical; settings: 5 v/v % rat brain homogenate, pH 7.4, 1 hour at 37° C.; read-out: Inhibition (IC50) of lipid peroxide production
Procedure: The male SD rat (12 weeks) brain tissue was extracted under anesthesia after depletion. The extracted brain tissue was used as 5 v/v % homogenate in phosphate buffer (pH 7.4). After incubation of the homogenate for 1 hour at 37° C., the peroxide produced was determined by the thiobarbituric acid method according to the method described in Analytical Biochemistry, 95, 551 (1979).
Before incubation, test compounds were added in 5 v/v % homogenate so that their final concentration becomes 10^-5 M. […]

[3] = tested on: excitatory behavior induced by FeCl2 in mice; assay: Excitatory behavior induced by spinal intrathecal injection of FeCl2 in mice; type: in vivo, mouse; settings: 100 mg/kg p.o.; for Score (mean behavioral score): 30 min. prior to FeCl2, 0 normal to 5 death; for Percent inhibition (of mean score): vs vehicle p.o.
Procedure: Male Slc:ICP mice (5 weeks) were used. Each group consisted of 10 mice. 5 μl of 50 mM FeCl2 in saline was injected into spinal subarchnoid space betwen the 1st sacral and the 6th lumbar segment, the behavioral responses were observed from 15 min. to 1 hr. after the intrathecal injection of FeCl2 and scored as follows.
Score Behavioral responses
0: normal (no abnormal behavior)
1: vigorously biting lower abdomen or lower extremities
(a) extremely biting lower body with rolling
(b) hyperreactivity and agressive to external stmuli
at least one of above three behavioral changes were observed
4: tonic convulsion or paralysis of lower extremities.
The test compounds (100 mg/kg) were orally administered 30 min. prior to FeCl2 injection.

[4] = tested on: neurological deficits caused by spinal cord compression in rats; assay: Functional neurologic impairment induced by spinal cord compression in rats; type: in vivo, rat; settings: 40 mg/kg, p.o.; for neurological impairment caused by spinal cord compression (in words): Table 4(III)
Source text: (§1) Male Jcl:Wistar rats, weighing about 350 g at the time of spinal cord compression were used. A spinal cord injury was produced in rats by compressing the spinal cord with a stainless screw of 2.8 mm length and 2 mm diameter at thoracic 11 (T11) level under pentobarbital anesthesia. On the day of the operation, the screw was placed so that the end was just above the subarachnoid membrane of the spinal cord.
(§2) On the following day, the screw was completely tightened to compress the spinal cord without penetrating the subarachnoid membrane. After compression of the spinal cord for 60 min., the screw was removed. Test compounds were given orally 5 min. after the removal of screw.
0; flaccid paralysis, no movement of hind limbs, no response to pinching of tail with foreceps (i.e. movement of fore limbs, biting foreceps, vocalization)
1; no movement of hind limbs, but responds to pinching of tail with foreceps
2; uncoordinated movement (loss of coordination between limbs), but can not support own weight
3; movement with an impairment (general coordination between limbs), but can not support own weight
4; walking with a slight ataxia of the hind limbs, but can support own weight
(§3) The median neurological score of the drug-treated groups were compared with that saline-teated control group. Statistical analysis was done using the Mann-Whitney U-test. The incidence of rats showing urinary incontinence was also compared by the .chi.^2 -test.

[5] = tested on: urinary incontinence in rats with spinal cord compression; assay: Incidence of rats showing urinary incontinence (spinal cord compression); type: in vivo, rat; parameters: Incidence of rats showing urinary incontinence: unit not given here; settings: 40 mg/kg, p.o.; for incidence of urinary incontinence (in words): Table 4(IV)
Source text: as §1, §2, §3

[6] = tested on: neurological deficits in rats with cerebral ischemia; assay: Neurological deficits in rats with experimental cerebral ischemia; type: in vivo, rat; settings: p.o.
Procedure: Male Crj:Wistar rats, that were 7 weeks old at the time of electocauterization of the bilateral vertebral arteries, were used. Electrocauterization of the bilateral vertebral arteries was performed under pentobarbital Na (40 mg/kg, i.p.) anesthesia. Global cerebral ischemia was produced by 20 min. occlusion of both common carotid arteries 24 hr after the permanent electrocauterization of the bilateral vertebral arteries (Pulsinelli W. A. and Brierly J. B., Stroke 10, 267-272 (1979).
The compound of Example 20 was given orally as a single dose immediately after the reperfusion of both carotid arteries.
1; decrease in spontaneous motor activity, piloerection, ptosis, miosis, hyperirritability, slight ataxia
2; moderate to servere ataxia
3; loss of righting reflex, slight convulsions
4; severe convulsions, coma
The median neurological deficit scores of the drug-treated groups were compared with that of saline-treated control. Statistical analysis was done using the Mann-Whitney U-test.

[7] = day 1, 0 flaccid paralysis to 5 normal gait, Ex. 20 **p < 0.01
[8] = day 3, Ex. 7 *p < 0.05, Ex. 20 **p < 0.01

Cc1c(C)c2c(c(C)c1O)C(c1ccc(F)cc1)C(C)(C)O2 (centres unmarked) [Example 7, 3-(4-fluorophenyl)-5-hydroxy-2,2,4,6,7-pentamethyl-2,3-dihydrobenzofuran]
inhibition at 1 µM (5-lipoxygenase): 99%
inhibition at 0.1 µM (5-lipoxygenase): 43%
inhibition at 0.01 µM (5-lipoxygenase): 13%
inhibition at 100 µM ([1]; 10^-4 M): 49%
inhibition at 10 µM ([1]; 10^-5 M): 35%
IC50 [2]: 0.23 µM
Score (mean behavioral score) [3]: 0.3
Percent inhibition (of mean score) [3]: 93%
neurological score (median value) [4, 7]: 2
neurological score (median value) [4, 8]: 2
neurological score (median value) ([4]; day 7, Ex. 20 **p < 0.01): 3
neurological score (median value) ([4]; day 14, Ex. 20 *p < 0.05): 4
neurological impairment caused by spinal cord compression (in words) [4]: ameliorated the neurological impairment
Incidence of rats showing urinary incontinence ([5]; day 1, Ex. 20 **p < 0.01): 42.9
Incidence of rats showing urinary incontinence ([5]; day 2, Ex. 20 **p < 0.01): 14.3
Incidence of rats showing urinary incontinence [5, 8]: 7.1
Incidence of rats showing urinary incontinence ([5]; day 5, Ex. 20 **p < 0.01): 7.1
Incidence of rats showing urinary incontinence ([5]; day 7, Ex. 7 *p < 0.05): 0
Incidence of rats showing urinary incontinence ([5]; day 10): 0
Incidence of rats showing urinary incontinence ([5]; day 14): 0
incidence of urinary incontinence (in words) [5]: reduced the incidence of urinary incontinence

Cc1c(C)c2c(c(C)c1O)C(c1ccc(Br)cc1)C(C)(C)O2 (centres unmarked) [Example 11]
Score (mean behavioral score) [3]: 0.7
Percent inhibition (of mean score) [3]: 84%

Cc1c(C)c2c(c(C)c1O)C(c1ccc(Cl)cc1)C(C)(C)O2 (centres unmarked) [Example 13]
Score (mean behavioral score) [3]: 0.7
Percent inhibition (of mean score) [3]: 83%

Cc1c(C)c2c(c(C)c1O)C(c1ccc(C(C)C)cc1)C(C)(C)O2 (centres unmarked) [Example 20, 5-hydroxy-2,2,4,6,7-pentamethyl-3-(4-isopropylphenyl)-2,3-dihydrobenzofuran]
inhibition at 1 µM (5-lipoxygenase): 100%
inhibition at 0.1 µM (5-lipoxygenase): 42%
inhibition at 0.01 µM (5-lipoxygenase): 36%
IC50 [2]: 0.025 µM
neurological deficit score (median value) ([6]; 10 mg/kg, day 1, 0 normal to 5 death): 2
neurological deficit score (median value) ([6]; 10 mg/kg, day 2): 2
neurological deficit score (median value) ([6]; 10 mg/kg, day 3, *p < 0.05): 1.5
neurological deficit score (median value) ([6]; 10 mg/kg, day 5, **p < 0.01): 1
neurological deficit score (median value) ([6]; 10 mg/kg, day 7, *p < 0.05): 1
neurological deficit score (median value) ([6]; 10 mg/kg, day 10, **p < 0.01): 0
neurological deficit score (median value) ([6]; 10 mg/kg, day 14): 0
neurological deficit score (median value) ([6]; 40 mg/kg, day 1, 0 normal to 5 death): 2
neurological deficit score (median value) ([6]; 40 mg/kg, day 2): 2
neurological deficit score (median value) ([6]; 40 mg/kg, day 3, **p < 0.01): 1
neurological deficit score (median value) ([6]; 40 mg/kg, day 5, **p < 0.01): 1
neurological deficit score (median value) ([6]; 40 mg/kg, day 7, *p < 0.05): 1
neurological deficit score (median value) ([6]; 40 mg/kg, day 10, *p < 0.05): 0
neurological deficits caused by transient cerebral ischemia (in words) ([6]; 10 and 40 mg/kg): significantly ameliorated the neurological deficits
neurological score (median value) [4, 7]: 2
neurological score (median value) [4, 8]: 3
neurological score (median value) ([4]; day 7, Ex. 20 **p < 0.01): 4
neurological score (median value) ([4]; day 14, Ex. 20 *p < 0.05): 4
neurological impairment caused by spinal cord compression (in words) [4]: ameliorated the neurological impairment
Incidence of rats showing urinary incontinence ([5]; day 1, Ex. 20 **p < 0.01): 0
Incidence of rats showing urinary incontinence ([5]; day 2, Ex. 20 **p < 0.01): 0
Incidence of rats showing urinary incontinence [5, 8]: 0
Incidence of rats showing urinary incontinence ([5]; day 5, Ex. 20 **p < 0.01): 0
Incidence of rats showing urinary incontinence ([5]; day 7, Ex. 7 *p < 0.05): 7.1
Incidence of rats showing urinary incontinence ([5]; day 10): 7.1
Incidence of rats showing urinary incontinence ([5]; day 14): 7.1
incidence of urinary incontinence (in words) [5]: reduced the incidence of urinary incontinence
